Experiment [1] has as its target PIK3CA (human) (UniProt P42336). Nature of the experiment: Inhibition of PIK3CA Kinase Activity.
Experiment [2] has as its target PIK3CB (Human) (UniProt P42338). Kind of experiment: Inhibition of PIK3CB Kinase Activity.
Experiment [3] addresses PIK3CD (Human) (UniProt O00329). Kind of experiment: Inhibition of PIK3CD Kinase Activity.
Experiment [4] deals with PIK3CG (human) (UniProt P48736). Kind of experiment: Inhibition of PIK3CG Kinase Activity.

One may read the IC50 as the midpoint of a concentration-inhibition curve. Low values mean greater potency, high ones weaker potency.

Sequence of PIK3CA (human) (P42336 whole entry, looked up): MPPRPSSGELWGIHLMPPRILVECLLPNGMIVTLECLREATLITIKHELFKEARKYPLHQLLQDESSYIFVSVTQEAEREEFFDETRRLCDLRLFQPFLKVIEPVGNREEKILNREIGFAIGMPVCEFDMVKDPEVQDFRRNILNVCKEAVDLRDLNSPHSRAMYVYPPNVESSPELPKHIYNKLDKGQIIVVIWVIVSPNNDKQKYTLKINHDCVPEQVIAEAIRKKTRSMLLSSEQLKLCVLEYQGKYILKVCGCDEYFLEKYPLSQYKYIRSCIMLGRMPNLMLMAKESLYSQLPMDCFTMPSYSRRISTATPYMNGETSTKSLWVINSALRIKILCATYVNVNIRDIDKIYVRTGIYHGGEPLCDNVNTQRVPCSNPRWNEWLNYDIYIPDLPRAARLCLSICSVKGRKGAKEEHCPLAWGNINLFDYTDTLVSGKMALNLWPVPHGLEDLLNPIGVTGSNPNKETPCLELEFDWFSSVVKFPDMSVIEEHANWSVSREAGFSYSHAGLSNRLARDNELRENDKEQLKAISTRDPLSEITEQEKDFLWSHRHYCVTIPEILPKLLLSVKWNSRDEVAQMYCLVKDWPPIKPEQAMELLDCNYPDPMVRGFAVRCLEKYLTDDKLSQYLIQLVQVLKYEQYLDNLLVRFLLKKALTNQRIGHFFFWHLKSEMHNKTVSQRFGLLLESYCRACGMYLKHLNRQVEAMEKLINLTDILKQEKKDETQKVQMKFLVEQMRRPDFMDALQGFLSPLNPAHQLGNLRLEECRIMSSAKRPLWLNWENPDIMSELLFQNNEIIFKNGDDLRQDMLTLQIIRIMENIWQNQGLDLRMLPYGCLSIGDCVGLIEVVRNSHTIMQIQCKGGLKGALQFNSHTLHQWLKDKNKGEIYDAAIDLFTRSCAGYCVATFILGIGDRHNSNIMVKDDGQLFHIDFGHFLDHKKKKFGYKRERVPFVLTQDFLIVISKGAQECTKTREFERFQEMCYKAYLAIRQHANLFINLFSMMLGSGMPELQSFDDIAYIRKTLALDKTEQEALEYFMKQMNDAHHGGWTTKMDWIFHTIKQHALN
Sequence of PIK3CB (Human) (P42338 whole entry, looked up): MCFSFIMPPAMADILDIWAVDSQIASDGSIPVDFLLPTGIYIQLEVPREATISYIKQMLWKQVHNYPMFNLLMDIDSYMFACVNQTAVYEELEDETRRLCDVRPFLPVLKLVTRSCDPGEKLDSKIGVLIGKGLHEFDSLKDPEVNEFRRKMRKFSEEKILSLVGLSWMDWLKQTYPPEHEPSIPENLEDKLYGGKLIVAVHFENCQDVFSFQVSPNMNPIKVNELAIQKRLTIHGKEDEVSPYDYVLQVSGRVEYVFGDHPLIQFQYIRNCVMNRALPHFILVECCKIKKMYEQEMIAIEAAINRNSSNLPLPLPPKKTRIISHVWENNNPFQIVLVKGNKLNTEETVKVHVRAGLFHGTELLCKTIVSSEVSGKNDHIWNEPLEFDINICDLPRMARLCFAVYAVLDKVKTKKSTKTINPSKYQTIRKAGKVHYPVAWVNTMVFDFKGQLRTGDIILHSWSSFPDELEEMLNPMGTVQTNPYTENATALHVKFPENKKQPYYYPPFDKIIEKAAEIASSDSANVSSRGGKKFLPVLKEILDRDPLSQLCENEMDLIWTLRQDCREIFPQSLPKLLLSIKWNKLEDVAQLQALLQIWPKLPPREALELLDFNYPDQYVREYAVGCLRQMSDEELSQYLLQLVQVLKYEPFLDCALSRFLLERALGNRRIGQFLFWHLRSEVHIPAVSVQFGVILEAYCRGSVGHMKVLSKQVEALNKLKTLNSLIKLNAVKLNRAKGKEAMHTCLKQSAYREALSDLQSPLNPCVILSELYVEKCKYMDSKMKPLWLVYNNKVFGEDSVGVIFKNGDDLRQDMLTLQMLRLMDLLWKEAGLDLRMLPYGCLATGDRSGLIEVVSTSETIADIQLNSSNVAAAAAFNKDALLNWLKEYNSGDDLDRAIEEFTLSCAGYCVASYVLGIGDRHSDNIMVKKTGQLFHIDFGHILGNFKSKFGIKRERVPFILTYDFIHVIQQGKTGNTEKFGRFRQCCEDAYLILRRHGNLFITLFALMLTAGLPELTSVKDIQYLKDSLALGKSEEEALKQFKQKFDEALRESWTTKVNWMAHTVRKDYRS
Sequence of PIK3CG (human) (P48736 whole entry, looked up): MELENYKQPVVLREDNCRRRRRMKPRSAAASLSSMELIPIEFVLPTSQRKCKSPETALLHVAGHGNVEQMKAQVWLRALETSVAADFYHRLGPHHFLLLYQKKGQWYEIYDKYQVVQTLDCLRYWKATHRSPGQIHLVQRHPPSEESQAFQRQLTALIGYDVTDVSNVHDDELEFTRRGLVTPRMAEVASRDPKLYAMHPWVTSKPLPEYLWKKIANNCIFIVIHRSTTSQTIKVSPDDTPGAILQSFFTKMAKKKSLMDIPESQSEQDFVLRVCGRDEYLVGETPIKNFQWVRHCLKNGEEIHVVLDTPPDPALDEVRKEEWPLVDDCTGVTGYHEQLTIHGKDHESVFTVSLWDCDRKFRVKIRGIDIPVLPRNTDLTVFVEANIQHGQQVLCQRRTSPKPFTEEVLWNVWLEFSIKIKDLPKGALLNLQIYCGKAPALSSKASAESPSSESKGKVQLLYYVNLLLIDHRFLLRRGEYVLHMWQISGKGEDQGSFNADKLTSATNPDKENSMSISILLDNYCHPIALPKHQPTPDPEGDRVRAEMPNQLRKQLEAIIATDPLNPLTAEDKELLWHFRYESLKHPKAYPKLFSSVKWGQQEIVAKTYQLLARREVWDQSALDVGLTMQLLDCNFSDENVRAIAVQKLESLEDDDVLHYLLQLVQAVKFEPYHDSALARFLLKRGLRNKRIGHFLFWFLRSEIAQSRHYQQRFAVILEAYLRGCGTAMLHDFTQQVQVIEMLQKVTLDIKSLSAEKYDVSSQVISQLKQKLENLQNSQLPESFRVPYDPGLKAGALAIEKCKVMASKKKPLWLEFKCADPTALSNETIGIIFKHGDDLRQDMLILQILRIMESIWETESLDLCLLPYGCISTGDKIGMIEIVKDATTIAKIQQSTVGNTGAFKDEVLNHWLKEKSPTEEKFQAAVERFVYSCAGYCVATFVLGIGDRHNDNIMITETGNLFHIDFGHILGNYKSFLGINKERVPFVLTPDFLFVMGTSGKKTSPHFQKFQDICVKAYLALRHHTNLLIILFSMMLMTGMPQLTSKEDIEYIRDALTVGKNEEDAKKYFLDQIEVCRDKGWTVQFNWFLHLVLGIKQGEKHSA
Sequence of PIK3CD (Human) (O00329 whole entry, looked up): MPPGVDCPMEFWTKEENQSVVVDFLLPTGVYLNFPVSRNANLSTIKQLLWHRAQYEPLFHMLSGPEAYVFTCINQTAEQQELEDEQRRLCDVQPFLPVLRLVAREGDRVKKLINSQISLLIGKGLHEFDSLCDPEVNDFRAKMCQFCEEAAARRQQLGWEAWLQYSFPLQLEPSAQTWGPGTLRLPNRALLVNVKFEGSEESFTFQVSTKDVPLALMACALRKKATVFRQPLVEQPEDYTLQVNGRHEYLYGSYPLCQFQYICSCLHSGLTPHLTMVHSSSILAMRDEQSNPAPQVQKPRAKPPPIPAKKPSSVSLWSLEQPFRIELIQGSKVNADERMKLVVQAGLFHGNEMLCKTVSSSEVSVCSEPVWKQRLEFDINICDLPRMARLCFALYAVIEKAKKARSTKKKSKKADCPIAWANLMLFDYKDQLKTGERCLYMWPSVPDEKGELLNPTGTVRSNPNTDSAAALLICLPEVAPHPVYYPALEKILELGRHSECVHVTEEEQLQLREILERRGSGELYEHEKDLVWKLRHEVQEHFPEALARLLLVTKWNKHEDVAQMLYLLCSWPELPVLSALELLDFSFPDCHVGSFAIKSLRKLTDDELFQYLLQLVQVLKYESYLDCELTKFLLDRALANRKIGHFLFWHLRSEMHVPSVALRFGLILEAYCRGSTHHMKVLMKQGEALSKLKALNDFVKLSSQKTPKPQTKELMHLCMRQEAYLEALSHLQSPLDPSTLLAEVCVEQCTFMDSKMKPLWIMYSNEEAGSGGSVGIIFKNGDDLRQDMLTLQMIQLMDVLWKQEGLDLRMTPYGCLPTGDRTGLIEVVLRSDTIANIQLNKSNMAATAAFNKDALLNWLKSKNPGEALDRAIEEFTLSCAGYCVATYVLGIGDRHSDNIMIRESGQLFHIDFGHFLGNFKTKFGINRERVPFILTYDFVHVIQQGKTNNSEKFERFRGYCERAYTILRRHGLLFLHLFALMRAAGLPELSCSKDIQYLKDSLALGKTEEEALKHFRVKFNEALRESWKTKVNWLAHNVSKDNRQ

Consider `Cc1cc(F)ccc1Oc1cccc2c(=O)cc(N3CCOCC3)[nH]c12`, for which the IC50 in experiment [1] and in experiment [2] was 20 nM throughout.

As to `O=c1c2c(Cl)cccc2nc(CSc2ncnc3[nH]cnc23)n1-c1ccccc1-c1ccccc1`, the IC50 in experiment [1] is more than 2000 nM; in experiment [2], more than 2000 nM; in experiment [3], 50 nM; in experiment [4], more than 2000 nM.

Turning to `Cc1cc(NCc2ccccc2)c2nc(N3CCOCC3)cc(=O)n2c1`, the IC50 was 50 nM in experiment [1], 50 nM in experiment [2] and more than 10000 nM in experiment [4].

In the case of `O=c1c(O)c(-c2ccc(O)c(O)c2)oc2cc(O)cc(O)c12`, the IC50 in experiment [1] worked out at 3800 nM.

The values are drawn from the Kinase Knowledgebase extract (Sharma et al. 2016).
